Source: paper PMC9718554, “Discovery of a fragment hit compound targeting D-Ala:D-Ala ligase of bacterial peptidoglycan biosynthesis” (Journal of Enzyme Inhibition and Medicinal Chemistry, 2022)
Like-named read-outs stand apart in the source and are kept apart here.

Molecular target: T1, E. coli DdlB enzyme (D-alanine:D-alanine ligase) (Escherichia coli, UniProt P07862)
T1 construct: made in house; host or cells: E. coli
Assay: biochemical
Conditions: read-out: DdlB RA; for remaining activity at 1900 µM: tested concentration 1.9 mM; for remaining activity at 2100 µM: tested concentration 2.1 mM; for remaining activity at 1800 µM: tested concentration 1.8 mM; for remaining activity at 2000 µM: tested concentration 2.0 mM; for remaining activity at 2800 µM: tested concentration 2.8 mM; for remaining activity at 2300 µM: tested concentration 2.3 mM; for remaining activity at 1700 µM: tested concentration 1.7 mM; for remaining activity at 2500 µM: tested concentration 2.5 mM

**Q.** Which remaining activity at 1900 µM (fragment library screening) does the source give for `O=C(O)Cn1nnc(-c2cccc(-n3cccn3)c2)n1` [Compound 8020-8838] here?
**A.** 92%

**Q.** How did the remaining activity at 2100 µM turn out when `CCC[C@@H]1Cc2nc(O)c(C(=O)O)cc2CO1` [Compound 8330-0016] was run?
**A.** 75%

**Q.** With `O=C(O)c1ccccc1NCCc1ccc(Cl)cc1` [Compound 8524-6914] as the compound, how does the remaining activity at 1800 µM (residual activity) read?
**A.** 105%

**Q.** With `CCN1CCOC(=O)C1CC(=O)Nc1ccc(F)cc1` (centres unmarked) [Compound 8563-1154] as the compound, how does the remaining activity at 2000 µM (residual activity) read?
**A.** 88%

**Q.** For `Oc1nc(-c2ccc(F)cc2)no1` [Compound C066-5406], which remaining activity at 2800 µM is on record?
**A.** 97%

**Q.** For `Cc1ccc(-c2noc(O)n2)cc1` [Compound C066-5428], which remaining activity at 2800 µM is on record?
**A.** 95%

**Q.** Which remaining activity at 2100 µM (residual activity) does the source give for `O=C(O)C1CCCCN1S(=O)(=O)c1ccc(F)cc1` (centres unmarked) [Compound C155-0476] here?
**A.** 90%

**Q.** `COc1ncccc1S(=O)(=O)N1CCCCC1` [Compound C200-8263] was tested. Which remaining activity at 2300 µM did it give?
**A.** 100%

**Q.** How did the remaining activity at 1900 µM (residual activity) turn out when `O=C(O)c1cccn2c(=O)c3cc(F)ccc3nc12` [Compound C200-9599] was run?
**A.** 85%

**Q.** Which remaining activity at 2000 µM (residual activity) does the source give for `Cc1ccc2nc3c(C(=O)O)cccn3c(=O)c2c1` [Compound C200-9601] here?
**A.** 75%

**Q.** How did the remaining activity at 1800 µM (residual activity) turn out when `O=C(O)c1cccn2c(=O)c3cc(Cl)ccc3nc12` [Compound C200-9602] was run?
**A.** 78%

**Q.** With `CCOC(=O)c1cn[nH]c1O` [Compound C201-1623] as the compound, how does the remaining activity at 3200 µM read?
**A.** 101%

**Q.** With `Cc1nc(N(C)C)ncc1C(=O)O` [Compound C430-1216] as the compound, how does the remaining activity at 2800 µM read?
**A.** 88%

**Q.** With `COCC(C)NC(=O)c1cc(C)no1` (centres unmarked) [Compound C625-0074] as the compound, how does the remaining activity at 2800 µM read?
**A.** 96%

**Q.** For `CCCNc1c(N2CCCC(C(=O)OCC)C2)c(=O)c1=O` (centres unmarked) [Compound C738-0118], which remaining activity at 1700 µM is on record?
**A.** 108%

**Q.** How did the remaining activity at 2800 µM turn out when `N#Cc1ccccc1OCC(=O)O` [Compound C790-0277] was run?
**A.** 96%

**Q.** For `CC(=O)N1C(C(=O)O)CSC1c1ccc(C)cc1` (centres unmarked) [Compound C796-0200], which remaining activity at 1900 µM is on record?
**A.** 90%

**Q.** Which remaining activity at 2000 µM (residual activity) does the source give for `O=C(Cn1cc2c(n1)CCCC2)Nc1ccc(F)cc1` [Compound C881-0402] here?
**A.** 79%

**Q.** `O=C(O)COCC(=O)Nc1ccc(-c2nn[nH]n2)cc1` [Compound D047-0107] was tested. Which remaining activity at 1800 µM (fragment library screening) did it give?
**A.** 93%

**Q.** How did the remaining activity at 2500 µM turn out when `CCCCCC(C)n1nc(O)cc1N` (centres unmarked) [Compound D068-0217] was run?
**A.** 103%

**Q.** `CCCC(CCC)n1nc(O)cc1N` [Compound D068-0218] was tested. Which remaining activity at 2500 µM did it give?
**A.** 100%

**Q.** With `CCCCC(CC)n1nc(O)cc1N` (centres unmarked) [Compound D068-0219] as the compound, how does the remaining activity at 2500 µM read?
**A.** 100%

**Q.** Which remaining activity at 2200 µM (tested concentration 2.2 mM) does the source give for `CC1CN(C)C(C)CC1n1nc(O)cc1N` (centres unmarked) [Compound D068-0221] here?
**A.** 101%

**Q.** `COCCn1c(CCC(=O)O)ccc1-c1ccccc1` [Compound D135-0001] was tested. Which remaining activity at 1800 µM did it give?
**A.** 90%

**Q.** With `O=C(O)CC1C(=O)NCCN1C1Cc2ccccc2C1` (centres unmarked) [Compound D236-0050] as the compound, how does the remaining activity at 2000 µM (residual activity) read?
**A.** 103%

**Q.** With `C=CCn1c(N2CCC(C(=O)O)CC2)nc2ccccc21` [Compound D264-0028] as the compound, how does the remaining activity at 1800 µM (fragment library screening) read?
**A.** 86%

**Q.** For `COc1ccc2ncc(C(=O)O)c(O)c2c1` [Compound D284-0199], which remaining activity at 2300 µM is on record?
**A.** 66%

**Q.** For `CC1CCCN(C(=O)c2nc[nH]c2C(=O)NC(C)C)C1` (centres unmarked) [Compound D340-0776], which remaining activity at 2000 µM (residual activity) is on record?
**A.** 96%

**Q.** How did the remaining activity at 2100 µM (residual activity) turn out when `CCS(=O)(=O)N1CCCc2cc(C(=O)NC)ccc21` [Compound D348-0142] was run?
**A.** 92%

**Q.** Which remaining activity at 1900 µM (residual activity) does the source give for `CNC(=O)C1CCCN(S(=O)(=O)c2cccs2)C1` (centres unmarked) [Compound D356-2306] here?
**A.** 86%

**Q.** For `CCS(=O)(=O)N1CCCC1c1ccc(C)cc1` (centres unmarked) [Compound D399-0123], which remaining activity at 2400 µM (tested concentration 2.4 mM) is on record?
**A.** 89%

**Q.** Which remaining activity at 2300 µM does the source give for `CCS(=O)(=O)N1CCCC1c1ccccc1F` (centres unmarked) [Compound D399-0515] here?
**A.** 95%

**Q.** `O=c1[nH]c(O)ncc1S(=O)(=O)NC1CCCCC1` [Compound D668-0013] was tested. Which remaining activity at 1800 µM (residual activity) did it give?
**A.** 99%

**Q.** With `Cc1ccc(NS(=O)(=O)c2cnc(O)[nH]c2=O)c(C)c1` [Compound D668-0040] as the compound, how does the remaining activity at 1700 µM read?
**A.** 91%

**Q.** How did the remaining activity at 2000 µM (residual activity) turn out when `O=c1[nH]c(O)ncc1S(=O)(=O)N1CCCC1` [Compound D668-0107] was run?
**A.** 94%

**Q.** How did the remaining activity at 1900 µM (residual activity) turn out when `Cc1nc(O)[nH]c(=O)c1S(=O)(=O)NC(C)(C)C` [Compound D668-0207] was run?
**A.** 85%

**Q.** Which remaining activity at 1800 µM (residual activity) does the source give for `Cc1nc(O)[nH]c(=O)c1S(=O)(=O)N1CCCCC1` [Compound D668-0306] here?
**A.** 89%

**Q.** With `O=C(O)Cn1ccc(=O)[nH]c1=O` [Compound D702-0091] as the compound, how does the remaining activity at 2900 µM (tested concentration 2.9 mM) read?
**A.** 89%

**Q.** How did the remaining activity at 2300 µM turn out when `CC(=O)c1cnc2c(C(=O)O)cnn2c1C` [Compound D717-0038] was run?
**A.** 104%

**Q.** How did the remaining activity at 2100 µM (residual activity) turn out when `O=C(O)c1cc2nccc(-c3ccccc3)n2n1` [Compound D717-0041] was run?
**A.** 74%

**Q.** `Cc1cc(-c2ccc(Cl)cc2)nc2cc(C(=O)O)nn12` [Compound D717-0161] was tested. Which remaining activity at 1700 µM (fragment library screening) did it give?
**A.** 88%
